Read-outs that look alike come from different tables or passages of the source.
Experiments:
[1] = for change of plasma concentration without the deconjugation step (hydrolysis): rat plasma after 0.5 mg kg-1 MDPV ip or sc, with vs without hydrolysis; for form present in rat plasma: rat plasma after MDPV, concluded from hydrolysis comparison; for plasma concentration, Without hydrolysis / plasma concentration, Hydrolysis / plasma concentration range after intraperitoneal dosing / plasma concentration range after the subcutaneous dose: rat plasma; for plasma concentration, Without hydrolysis / plasma concentration, Hydrolysis: LOQ 0.25 μg L^−1; for plasma concentration, Hydrolysis: with hydrolysis; for plasma concentration range after intraperitoneal dosing: 0.5 mg kg^−1 MDPV intraperitoneal; for plasma concentration range after intraperitoneal dosing / plasma concentration range after the subcutaneous dose: samples 10-480 min after dosing; for plasma concentration range after the subcutaneous dose: 0.5 mg kg^−1 MDPV subcutaneous
[2] = Short-term stability in fortified plasma; assay type: physicochemical, human
[3] = 0.5 mg kg-1 MDPV ip, 0 min (before dosing)
[4] = 0.5 mg kg-1 MDPV sc, 0 min (before dosing)
[5] = High QC 750 μg L^−1, n=5, vs freshly fortified
[6] = Low QC 0.75 μg L^−1, n=5, vs freshly fortified
[7] = Medium QC 25 μg L^−1, n=5, vs freshly fortified

SMILES | change of plasma concentration without the deconjugation step (hydrolysis) [1] | form present in rat plasma [1] | plasma concentration, Without hydrolysis [1, 3] | plasma concentration, Hydrolysis ([1]; 0.5 mg kg-1 MDPV ip, 10 min) [ng/mL] | plasma concentration, Without hydrolysis ([1]; 0.5 mg kg-1 MDPV ip, 10 min) | plasma concentration, Hydrolysis ([1]; 0.5 mg kg-1 MDPV ip, 20 min) [ng/mL] | plasma concentration, Without hydrolysis ([1]; 0.5 mg kg-1 MDPV ip, 20 min) | plasma concentration, Hydrolysis ([1]; 0.5 mg kg-1 MDPV ip, 30 min) [ng/mL] | plasma concentration, Without hydrolysis ([1]; 0.5 mg kg-1 MDPV ip, 30 min) | plasma concentration, Hydrolysis ([1]; 0.5 mg kg-1 MDPV ip, 60 min) [ng/mL] | plasma concentration, Without hydrolysis ([1]; 0.5 mg kg-1 MDPV ip, 60 min) | plasma concentration, Hydrolysis ([1]; 0.5 mg kg-1 MDPV ip, 120 min) [ng/mL] | plasma concentration, Without hydrolysis ([1]; 0.5 mg kg-1 MDPV ip, 120 min) | plasma concentration, Hydrolysis ([1]; 0.5 mg kg-1 MDPV ip, 240 min) [ng/mL] | plasma concentration, Without hydrolysis ([1]; 0.5 mg kg-1 MDPV ip, 240 min) | plasma concentration, Hydrolysis ([1]; 0.5 mg kg-1 MDPV ip, 480 min) [ng/mL] | plasma concentration, Without hydrolysis ([1]; 0.5 mg kg-1 MDPV ip, 480 min) | plasma concentration, Without hydrolysis [1, 4] | plasma concentration, Hydrolysis ([1]; 0.5 mg kg-1 MDPV sc, 10 min) [ng/mL] | plasma concentration, Without hydrolysis ([1]; 0.5 mg kg-1 MDPV sc, 10 min) | also measured
CCCC(C(=O)c1ccc(O)c(O)c1)N1CCCC1 (centres unmarked) [3,4-catechol-PV, 3,4-dihydroxypyrovalerone] | greatly decreased | primarily present as the conjugated forms | <LOQ | 4.3 | <LOQ | 5.1 | <LOQ | 4.9 | <LOQ | 3.7 | <LOQ | 9.6 | <LOQ | 11.8 | <LOQ | 5.3 | <LOQ | <LOQ | 1.3 | <LOQ | plasma concentration, Hydrolysis ([1]; 0.5 mg kg-1 MDPV sc, 20 min): 2.7 ng/mL; plasma concentration, Without hydrolysis ([1]; 0.5 mg kg-1 MDPV sc, 20 min): <LOQ; plasma concentration, Hydrolysis ([1]; 0.5 mg kg-1 MDPV sc, 30 min): 3.1 ng/mL; plasma concentration, Without hydrolysis ([1]; 0.5 mg kg-1 MDPV sc, 30 min): <LOQ; plasma concentration, Hydrolysis ([1]; 0.5 mg kg-1 MDPV sc, 60 min): 3.8 ng/mL; plasma concentration, Without hydrolysis ([1]; 0.5 mg kg-1 MDPV sc, 60 min): <LOQ; plasma concentration, Hydrolysis ([1]; 0.5 mg kg-1 MDPV sc, 120 min): 9.4 ng/mL; plasma concentration, Without hydrolysis ([1]; 0.5 mg kg-1 MDPV sc, 120 min): <LOQ; plasma concentration, Hydrolysis ([1]; 0.5 mg kg-1 MDPV sc, 240 min): 9.8 ng/mL; plasma concentration, Without hydrolysis ([1]; 0.5 mg kg-1 MDPV sc, 240 min): <LOQ; plasma concentration, Hydrolysis ([1]; 0.5 mg kg-1 MDPV sc, 480 min): 3.6 ng/mL; plasma concentration, Without hydrolysis ([1]; 0.5 mg kg-1 MDPV sc, 480 min): <LOQ; plasma concentration range after intraperitoneal dosing [1]: 3.7 to 11.8 ng/mL; plasma concentration range after the subcutaneous dose [1]: 1.3 to 9.8 ng/mL; Stability (% difference) 3 freeze-thaw cycles [2, 5]: −3.6 % difference; Stability (% difference) 72h at 4°C [2, 5]: −3 % difference; Stability (% difference) 3 freeze-thaw cycles [2, 6]: −3.2 % difference; Stability (% difference) 72h at 4°C [2, 6]: −7.3 % difference; Stability (% difference) 3 freeze-thaw cycles [2, 7]: −2.6 % difference; Stability (% difference) 72h at 4°C [2, 7]: 6.5 % difference
CCCC(C(=O)c1ccc(O)c(OC)c1)N1CCCC1 (centres unmarked) [4-OH-3-MeO-PV, 4-hydroxy-3-methoxypyrovalerone] | greatly decreased | primarily present as the conjugated forms | <LOQ | 9.3 | 0.9 ng/mL | 11.8 | 0.7 ng/mL | 12.3 | 0.7 ng/mL | 14.1 | <LOQ | 68.9 | 0.5 ng/mL | 84.7 | 0.5 ng/mL | 23.6 | <LOQ | <LOQ | 3.2 | 1.1 ng/mL | plasma concentration, Hydrolysis ([1]; 0.5 mg kg-1 MDPV sc, 20 min): 6.1 ng/mL; plasma concentration, Without hydrolysis ([1]; 0.5 mg kg-1 MDPV sc, 20 min): 1.2 ng/mL; plasma concentration, Hydrolysis ([1]; 0.5 mg kg-1 MDPV sc, 30 min): 6.7 ng/mL; plasma concentration, Without hydrolysis ([1]; 0.5 mg kg-1 MDPV sc, 30 min): 1.1 ng/mL; plasma concentration, Hydrolysis ([1]; 0.5 mg kg-1 MDPV sc, 60 min): 11 ng/mL; plasma concentration, Without hydrolysis ([1]; 0.5 mg kg-1 MDPV sc, 60 min): 0.9 ng/mL; plasma concentration, Hydrolysis ([1]; 0.5 mg kg-1 MDPV sc, 120 min): 44.7 ng/mL; plasma concentration, Without hydrolysis ([1]; 0.5 mg kg-1 MDPV sc, 120 min): 0.7 ng/mL; plasma concentration, Hydrolysis ([1]; 0.5 mg kg-1 MDPV sc, 240 min): 54.4 ng/mL; plasma concentration, Without hydrolysis ([1]; 0.5 mg kg-1 MDPV sc, 240 min): 0.4 ng/mL; plasma concentration, Hydrolysis ([1]; 0.5 mg kg-1 MDPV sc, 480 min): 11 ng/mL; plasma concentration, Without hydrolysis ([1]; 0.5 mg kg-1 MDPV sc, 480 min): <LOQ; plasma concentration range after intraperitoneal dosing [1]: 9.3 to 84.7 ng/mL; plasma concentration range after the subcutaneous dose [1]: 3.2 to 54.4 ng/mL; Stability (% difference) 3 freeze-thaw cycles [2, 5]: −0.5 % difference; Stability (% difference) 72h at 4°C [2, 5]: −1.5 % difference; Stability (% difference) 3 freeze-thaw cycles [2, 6]: 3.5 % difference; Stability (% difference) 72h at 4°C [2, 6]: 3.9 % difference; Stability (% difference) 3 freeze-thaw cycles [2, 7]: −0.5 % difference; Stability (% difference) 72h at 4°C [2, 7]: 6 % difference

— publication PMC4150738 (Analytica chimica acta, 2014)
